# Assay results reported in US20250257041A1, “INDUCERS OF INTEGRATED STRESS RESPONSE TO TREAT CANCER” (The Board of Regents of The University of Texas System, priority 2022, published 2025).
# Where two headings read alike, the source gives them in different places.
# Key:
# HCT116 WT = assay: Proliferation of HCT116 colorectal cell line, Cell TiterGlo; assay type: cell-based, human
# Method in brief: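 Cell viability by CellTiter-Glo in parental HCT116, in a GCN2-knockout line, and in parental cells co-treated with ISRIB. IC50 from triplicate 10-point titrations; repeated values come from separate runs.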
# RPS23 = molecular target: T1, RPS23 (Homo sapiens, UniProt P62266); assay: Photo-crosslinking in HCT116 cells, biotin-azide click, streptavidin pull-down, western blot for RPS23; assay type: binding; settings: HCT116 wild-type or RPS23 del R107-G109 mutant, UV irradiation
# T1 construct: endogenous in cells; host or cells: HCT116
# Procedure: Next HCT116 cells were incubated with SW393071 analogs conjugated to a photo-crosslinker (analogs: SW393065, SW393212 and SW393213), and irradiated with UV light. The cells were lysed and click-conjugated to biotin-azide. Drug-bound proteins were pulled down with streptavidin coated beads and resolved on an SDS-PAGE gel.
# Wild-type or RPS23 del R107-G109 knock-in mutant HCT116 cells were incubated with photo-crosslinker analog SW393212 and irradiated with UV light. The cells were lysed, and click-conjugated to biotin-azide essentially as shown in Example 7. Drug-bound proteins were pulled down with streptavidin coated beads and resolved on an SDS-PAGE gel.
# HCT116 GCN2KO = assay: Proliferation of HCT116 cells with GCN2 knocked out (CRISPR), Cell TiterGlo; assay type: cell-based, human; settings: Homo sapiens, HCT-116; HCT116 cells with GCN2 knocked out using CRISPR; read-out: HCT116 IC50 (uM) HCT116 − GCN2KO
# Procedure: Briefly, compounds were tested for their effect on proliferation of HCT116 colorectal cell lines using Cell TiterGlo (Promega). Each compound was tested in a 10-point dose response experiment in triplicate. Multiple values in the column titled HCT116 WT reflect separate independent experiments. The three columns titled “HCT116 WT (repeat)”, “HCT116-CGN2KO” and “HCT116 WT+ISRIB” provide data for selected compounds that were tested simultaneously under three conditions. The HCT116 WT column lists IC50 against the wild type HCT116 colorectal cancer cell line. The HCT116-CGN2KO lists IC50 data for cells in which one component of the integrated stress response, GCN2, has been knocked out using CRISPR technology.
# [1] = Homo sapiens, HCT-116, wild type HCT116, 10-point dose response in triplicate, multiple values = separate independent experiments, read-out: HCT116 IC50 (uM) HCT116 WT
# [2] = Homo sapiens, HCT-116, wild type HCT116, tested simultaneously with GCN2KO and +ISRIB, read-out: HCT116 IC50 (uM) HCT116 WT (repeat)
# [3] = wild type HCT116, compound plus 10 nM of ISRIB, read-out: HCT116 IC50 (uM) HCT116 WT + ISRIB
SMILES,IC50 (HCT116 WT; [1]),RPS23 bands after photo-crosslinking pull-down (RPS23),IC50 (HCT116 GCN2KO),IC50 (HCT116 WT; [2]),IC50 (HCT116 WT; [3])
"C#Cc1cccc(C(=O)Nc2cc(-c3ccc(NC(=O)c4cc(N=[N+]=[N-])ccc4Cl)cc3)nn2C)c1 [SW393212, 5-Azido-2-chloro-N-(4-(5-(3-ethynylbenzamido)-1-methyl-1H-pyrazol-3-yl)phenyl)benza-mide]",0.72 µM,bands from WT but not RPS23 mutant cells,–,–,–
"Cn1nc(-c2ccc(NC(=O)c3cc(N=[N+]=[N-])ccc3Cl)cc2)cc1NC(=O)c1ccccc1 [SW393171, 5-azido-N-(4-(5-benzamido-1-methyl-1H-pyrazol-3-yl)phenyl)-2-chlorobenzamide]",0.19 µM,–,2.78 µM,0.49 µM,2.33 µM
"C#Cc1cccc(C(=O)Nc2ccc(-c3cc(NC(=O)c4ccccc4)n(C)n3)cc2)c1 [SW389013, N-(4-(5-Benzamido-1-methyl-1H-pyrazol-3-yl)phenyl)-3-ethynylbenzamide]",2.79 µM,–,15.8 µM,4.21 µM,19.8 µM
"COc1ccccc1C(=O)Nc1ccc(-c2cc(NC(=O)c3ccccc3)n(C)n2)cc1 [SW389001, N-(4-(5-Benzamido-1-methyl-1H-pyrazol-3-yl)phenyl)-2-methoxybenzamide]",0.31 µM,–,6.44 µM,0.84 µM,7 µM
"Cc1cccc(C(=O)Nc2cc(-c3ccc(NC(=O)c4ccccc4)cc3)nn2C)c1 [SW389156, N-(3-(4-Benzamidophenyl)-1-methyl-1H-pyrazol-5-yl)-3-methylbenzamide]",0.298 µM,–,2.22 µM,0.28 µM,2.45 µM
"Cn1nc(-c2ccc(NC(=O)c3ccccc3)cc2)cc1NC(=O)c1ccncc1 [SW393129, N-(3-(4-benzamidophenyl)-1-methyl-1H-pyrazol-5-yl)isonicotinamide]",0.95 µM,–,4.72 µM,2.11 µM,4.03 µM
"Cn1nc(-c2ccc(NC(=O)c3ccccc3)cc2)cc1NC(=O)c1cccc(Br)c1 [SW389162, N-(3-(4-benzamidophenyl)-1-methyl-1H-pyrazol-5-yl)-3-bromobenzamide]",0.335 µM,–,3.14 µM,0.32 µM,2.6 µM
"COC(=O)c1cccc(C(=O)Nc2ccc(-c3cc(NC(=O)c4ccccc4)n(C)n3)cc2)c1 [SW393068, methyl 3-((4-(5-benzamido-1-methyl-1H-pyrazol-3-yl)phenyl)carbamoyl)benzoate]",8.3 µM,–,47 µM,13.6 µM,–
"Cn1nc(-c2ccc(NC(=O)c3ccccc3)cc2)cc1NC(=O)c1ccc(Cl)cc1 [SW393132, N-(3-(4-benzamidophenyl)-1-methyl-1H-pyrazol-5-yl)-4-chlorobenzamide]",> 50 µM,–,≥ 50 µM,≥ 50 µM,–
"Cn1nc(-c2ccc(NC(=O)c3ccccc3)cc2)cc1NC(=O)c1cccc(Cl)c1 [SW389161, N-(3-(4-benzamidophenyl)-1-methyl-1H-pyrazol-5-yl)-3-chlorobenzamide]",1.27 µM,–,11.7 µM,1.06 µM,8.26 µM
